Measurements taken from patent US10500286B2, “CCK2R-drug conjugates” (priority 2015, dated 2019).
Where two headings read alike, the source gives them in different places.

What was measured:
[1] = system: HEK-CCK2R cells; assay: In vitro study of conjugates versus competitor, [3H]thymidine incorporation; format: cell-based
Method: (§1) CCK2R-positive HEK-CCK2R cells were seeded in 12-well Falcon plates and allowed to form nearly confluent monolayers overnight in RPMI/HIFCS. Each well then received increasing concentrations of CCK2R targeted conjugates (EC1812 or EC1868)+/−10 μM of CCK2R binding competitor (Re-EC1786 or Re-EC1825). Cells were pulsed for 2 h at 37° C., rinsed with medium, and then chased in fresh medium up to 72 h. Spent medium was aspirated and replaced with medium containing [^3H]thymidine. Following a 2 h incubation, cells were washed with PBS and then treated with 5% trichloroacetic acid. The trichloroacetic acid was aspirated and cells were solubilized in 0.25 N sodium hydroxide. Each solubilized sample were transferred to scintillation vials containing Ecolume scintillation cocktail and counted in a liquid scintillation counter. Final results were expressed as the percentage of [^3H]thymidine incorporation relative to untreated controls and IC50 values calculated using GraphPad Prism software.

[2] = system: HEK-CCK2R cells; format: cell-based; settings: 2 h pulse at 37 C, chase up to 72 h, [3H]thymidine incorporation relative to untreated controls
Method: as §1, with “(n=4).” for “(EC1812 or EC1868)+/−10 μM of CCK2R binding competitor (Re-EC1786 or Re-EC1825).”

[3] = system: HEK-CCK2R tumor cells; assay: Antitumor activity in HEK-CCK2R tumor model; format: in vivo, mice; settings: 2 μmol/kg
Method: (§2) Female Balb/c nu/nu mice were fed ad libitum with 2918 irradiated Teklad Global 18% Rodent Diet for the duration of the experiment. HEK-CCK2R tumor cells were inoculated subcutaneously at the right flank of each mouse. Mice were dosed through the lateral tail vein under sterile conditions in a volume of 200 μL of phosphate-buffered saline (PBS).
Growth of each s.c. tumor was followed by measuring the tumor two times per week. Tumors were measured in two perpendicular directions using Vernier calipers, and their volumes were calculated as 0.5×L×W^2, where L=measurement of longest axis in mm and W=measurement of axis perpendicular to L in mm.
Treatment with 2 μmol/kg of EC1947 (Sulfated CCK8-Tubulysin B SMDC), three times a week for two weeks produced maximal anti-tumor activity with 80% cures and 20% CR's. In comparison, EC1868 (CCK8-PEG3-Tubulysin B SMDC) and EC1873 (CCK8-PEG12-Tubulysin B SMDC) at the same dose and schedule produced 100% CR's and 80% CR's/20% PR's, respectively.

[4] = Body weight of mice bearing subcutaneous HEK-CCK2R tumors during treatment; format: in vivo; settings: 2 μmol/kg, TIW×2 weeks
Method: (▪) control; (▴) EC1873; (●) EC1868; (∘) EC1947.
as §2

[5] = three times a week for two weeks

Structure (SMILES)	cytotoxic activity on HEK-CCK2R, in words [1]	IC50 ([1]; + 10 μM competitor Re-EC1786, read-out: IC50 in presence of Re-EC1786)	IC50 ([1]; conjugate alone, read-out: IC50)	competition of activity by excess Re-EC1786, in words ([1]; excess Re-EC1786)	IC50 [2]	CR, number of animals, second figure of {PR, CR, cure} ([3]; TIW×2 weeks, n=5)	CR's [3, 5]	weight loss [4]	PR's [3, 5]	cures [3, 5]
CCCC(=O)OCN(C(=O)[C@@H](NC(=O)[C@H]1CCCCN1C)C(C)CC)[C@H](C[C@@H](OC(C)=O)c1nc(C(=O)N[C@@H](Cc2ccc(O)cc2)C[C@H](C)C(=O)NNC(=O)OCCSSC[C@H](NC(=O)[C@H](CCC(=O)NC[C@@H](O)[C@H](O)[C@@H](O)[C@@H](O)CO)NC(=O)[C@H](CCC(=O)O)NC(=O)[C@H](CCC(=O)NC[C@@H](O)[C@H](O)[C@@H](O)[C@@H](O)CO)NC(=O)[C@H](CCC(=O)O)NC(=O)CCCCCCCNC(=O)c2cccc(NC(=O)N[C@@H]3CN(C4CCCCC4)c4ccccc4N(CC(=O)C(C)(C)C)C3=O)c2)C(=O)O)cs1)C(C)C (some centres unmarked) [EC1812]	relatively inactive	262 nM	225 nM	not competeable	–	–	–	–	–	–
CCCC(=O)OCN(C(=O)[C@@H](NC(=O)[C@H]1CCCCN1C)C(C)CC)[C@H](C[C@@H](OC(C)=O)c1nc(C(=O)N[C@@H](Cc2ccc(O)cc2)C[C@H](C)C(=O)NNC(=O)OCCSSC[C@H](NC(=O)[C@H](CC(=O)O)NC(=O)[C@@H](N)CNC(C)=O)C(=O)NCCOCCOCCOCCC(=O)N[C@@H](CC(=O)O)C(=O)N[C@@H](Cc2ccc(O)cc2)C(=O)N[C@@H](CCSC)C(=O)NCC(=O)N[C@@H](Cc2c[nH]c3ccccc23)C(=O)N[C@@H](CCSC)C(=O)N[C@@H](CC(=O)O)C(=O)N[C@@H](Cc2ccccc2)C(N)=O)cs1)C(C)C (some centres unmarked) [EC1868]	potent, competeable cytotoxic activity	–	–	–	0.2 nM	5	100%	do not induce weight loss	–	–
CCCC(=O)OCN(C(=O)[C@@H](NC(=O)[C@H]1CCCCN1C)C(C)CC)[C@H](C[C@@H](OC(C)=O)c1nc(C(=O)N[C@@H](Cc2ccc(O)cc2)C[C@H](C)C(=O)NNC(=O)OCCSSC[C@H](NC(=O)[C@H](CC(=O)O)NC(=O)[C@@H](N)CNC(C)=O)C(=O)NCCOCCOCCOCCOCCOCCOCCOCCOCCOCCOCCOCCOCCC(=O)N[C@@H](CC(=O)O)C(=O)N[C@@H](Cc2ccc(O)cc2)C(=O)N[C@@H](CCSC)C(=O)NCC(=O)N[C@@H](Cc2c[nH]c3ccccc23)C(=O)N[C@@H](CCSC)C(=O)N[C@@H](CC(=O)O)C(=O)N[C@@H](Cc2ccccc2)C(N)=O)cs1)C(C)C (some centres unmarked) [EC1873]	–	–	–	–	2.8 nM	–	80%	do not induce weight loss	20%	–
CCCC(=O)OCN(C(=O)[C@@H](NC(=O)[C@H]1CCCCN1C)C(C)CC)[C@H](C[C@@H](OC(C)=O)c1nc(C(=O)N[C@@H](Cc2ccc(O)cc2)C[C@H](C)C(=O)NNC(=O)OCSSC[C@H](NC(=O)[C@H](CC(=O)O)NC(=O)[C@@H](N)CNC(C)=O)C(=O)NCCOCCOCCC(=O)N[C@@H](CC(=O)O)C(=O)N[C@@H](Cc2ccc(OS(=O)(=O)O)cc2)C(=O)N[C@@H](CCSC)C(=O)NCC(=O)N[C@@H](Cc2c[nH]c3ccccc23)C(=O)N[C@@H](CCSC)C(=O)N[C@@H](CC(=O)O)C(=O)N[C@@H](Cc2ccccc2)C(N)=O)cs1)C(C)C (some centres unmarked) [EC1947]	–	–	–	–	0.9 nM	–	20%	do not induce weight loss	–	80%
